Test results reported in patent publication US7815895B2, “Method for activating efferent sympathetic nerves innervating adipose tissues to improve obesity and symptoms associated therewith” (priority 2007, dated 2010).

Columns and labels:
[1] = tested on: PPARγ2-mice and LacZ-mice; assay: Bupranolol loading test (serum FFA); type: in vivo; details: fed state, 10 mg/kg intraperitoneal
Procedure: (A) Plasma lipid parameters (left: total cholesterol, middle: triglyceride (TG), right: free fatty acids (FFA)) in LacZ-mice (white bars) and PPARγ2-mice (black bars) on day 7 after adenoviral administration were measured in the 10 hour fasted state. (B-C) Relative amounts of UCP1 (left), PGC-1α (middle) and HSL (right) in brown adipose tissue (B) and epididymal fat tissue (C) from ad libitum-fed LacZ-mice (white bars) and PPARγ2-mice (black bars) on day 7 after adenoviral administration. (D) A pan-β adrenergic blocker, bupranolol, was injected intraperitoneally into LacZ-mice (open circles) and PPARγ2-mice (closed circles) in the fed state, on day 5 after adenoviral administration, followed by measurement of serum FFA levels. Data were expressed as percentages of serum FFA levels immediately before intraperitoneal bupranolol loading (10 mg/kg of body weight). Date are presented as mean±SD. **P<0.01 and *P<0.05, compared to control mice, by unpaired t test.
Glucose tolerance tests were performed on mice fasted for 10 hours as previously described (Y. Ishigaki et al., Diabetes 54, 322 (2005)). Insulin tolerance tests were performed on ad libitum fed mice. […] Serum FFA levels were measured immediately before and at 30 and 60 min after injection of inraperitoneal bupranolol (10 mg/kg of body weight, Kaken Pharmaceutical Co., Ltd. Tokyo, Japan).

[2] = tested on: hepatic branch of the vagus; assay: Perivagal capsaicin: vagal nerve immunohistochemistry and transmission electron microscopy; type: in vivo, rats; details: 7 days after perivagal application
Procedure: SD rats were treated with perivagal application of vehicle or capsaicin, 7 days prior to removal of the hepatic vagal nerves from vehicle-treated rats (veh) and capsaicin-treated rats (cap), and the esophgeal branch of the posterior vagal trunk from capsaicin-treated rats (eso). (A) Immunohistochemistry of the vagal nerves with anti-calcitonin gene-related peptide (CGRP) and anti-S100 antibodies. Magnification: ×400. The graphs show immunohistological staining intensities and the data are expressed as percentages of the intensities in vehicle-treated vagal nerve. (B) Transmission electron microscopy of the vagal nerves. While myelinated fibers are intact (arrows), unmyelinated fibers have been selectively degraded in perivagal capsaicin-treated nerves (arrowheads). Representative images from two rats of each group are shown.
After 4 weeks of a high-fat diet starting at 5 weeks of age, male SD rats were subjected to selective hepatic vagal afferent blockade. The hepatic branch of this vagal trunk was exposed as described above, then loosely tied with a cotton string immersed with or without capsaicin (Sigma Chemical Co, St Louis, Mo., USA) dissolved in olive oil (5% wt/vol). The cotton string was removed 30 min later and the abdominal incision was closed. Seven days after perivagal application of capsaicin or vehicle, recombinant adenovirus encoding LacZ or PPARγ2, at a dose of 6.5×10^8 plaque forming units (PFU), was injected via the tail vein.
Livers, WAT and BAT were removed and fixed with 10% formalin and embedded in paraffin. Tissue sections were stained with hematoxylin eosin. Total adipocyte areas were traced manually. Brown and white adipocyte diameters were measured in 150 or more cells per mouse in each group. For vagal nerve immunohistochemistry, SD rats were anesthetized with pentobarbiturate (60 mg/kg), and then perfused transcardially with saline and sequentially with 4% paraformaldehyde in 0.2 M phosphate buffer (PB; pH 7.4). […] The intensities of bands were quantified with the NIH image 1.62 program. […]

[3] = tested on: Male SD rats with high fat diet-induced obesity; assay: Perivagal capsaicin or vehicle 7 days prior to LacZ or PPARγ2 adenovirus; type: in vivo; details: perivagal capsaicin treatment
Procedure: Table 1. Afferent vagal activation from the liver is involved in remote effects of hepatic PPARγ2 expression. (Upper Column) Mice were subjected to hepatic vagotomy or sham operation 7 days prior to administration of LacZ or PPARγ2 adenovirus. Resting oxygen consumption (VO2) was measured on day 3 after adenoviral injection. Mice were sacrificed after a 10 hour fast on day 7 after adenoviral injection. (Lower Column) Male SD rats with high fat diet-induced obesity were subjected to application of capsaicin or vehicle to the vagal hepatic branch 7 days prior to administration of LacZ or PPARγ2 adenovirus. Seven days after adenoviral administration, epididymal fat weights were determined. P values: compared to LacZ-mice, by unpaired t test. n.s.: not significant.
Hepatic vagotomy involves dissection of both afferent and efferent vagal branches innervating the liver. To determine whether the remote effects of hepatic PPARγ2 expression are mediated by the afferent vagus, we applied a specific afferent neurotoxin, capsaicin, to the hepatic branch of the vagus of diet-induced obese male SD rats. Seven days after perivagal application of capsaicin or vehicle, we administered recombinant adenovirus encoding LacZ or PPARγ2. […] These observations indicate selective de-afferentation of the hepatic branch of the vagus. […]

Compound	serum FFA ([1]; LacZ-mice)	serum FFA ([1]; PPARγ2-mice)	unmyelinated fibers in the vagal hepatic branch (electron microscopy) [2]	Expression of calcitonin gene-related peptide in vagal nerve ([2]; versus vehicle)	immunoreactivity for S100 proteins ([2]; versus vehicle)	hepatic PPARγ2 expression-induced decrease in WAT weight [3]
Cc1ccc(Cl)c(OCC(O)CNC(C)(C)C)c1 (stereo not drawn) [bupranolol]	no effect	decreased	–	–	–	–
COc1cc(CNC(=O)CCCC/C=C/C(C)C)ccc1O [capsaicin]	–	–	selective degradation	markedly decreased	similar	completely blocked
